Data reported in article PMC4532424, “The Novel Cyclophilin Inhibitor CPI-431-32 Concurrently Blocks HCV and HIV-1 Infections via a Similar Mechanism of Action” (PLoS ONE, 2015).
Read-outs that look alike come from different tables or passages of the source.

How the values were obtained:
human T cells = settings: cited from earlier work
HIV-1 JR-CSF [1] = assay: HIV-1 mono-infection of CD4+ T-lymphocytes, p24 ELISA; type: cell-based; settings: Fig 1A
From the text: Hemoglobin determinations at every donation protect the donor from phlebotomy-induced anemia. The donor pool also provides investigators with a mix of gender and minority subjects, and recruitment is ongoing for underrepresented minorities. At the present time, the NBDS has 320 active normal blood donors enrolled. Use of the Normal Blood Donor Service is considered “human subjects” research and each investigator who wants to use the service must submit a protocol to the IRB for review and approval. Dr. Gallay has current IRB approval for the human blood obtained for research described in this manuscript. Protocol No: IRB-15-6552. Full name of the IRB is "Scripps IRB". […] Consent from blood donors was obtained verbally. The authors have no access to identifying donor information for these samples.

HCV JFH-1 [2] = assay: HCV mono-infection of Huh7.5.1 cells, core ELISA; type: cell-based; settings: Fig 1B
HIV-1 JR-CSF [3] = assay: HIV-1/HCV co-culture co-infection, HIV-1 p24 ELISA; type: cell-based
Description: (§1) CD4+ T-lymphocytes and Huh7.5.1 cells uninfected or infected for 3 h as described above were mixed in a single flask and HIV-1 and HCV replication monitored over a period of 3 weeks as described above.
(§2) HIV-1 target cells—CD4+ T-lymphocytes—and HCV target cells—hepatoma cells—were placed in a single chamber (flask), exposed to both HIV-1 and HCV, and viral replication monitored over time by p24 capsid and core ELISAs, respectively.
(§3) CD4+ T-lymphocytes (A) and Huh7.5.1 cells (B) (0.5 x 10^6 cells) (triplicates) were exposed to HIV-1 JR-CSF and HCV JFH-1. Drugs (2 μM) were added 3 h pre-viral exposure (top panels) or 3 days post-viral exposure (bottom panels). Viral replications were monitored by HIV-1 p24 and HCV core ELISAs. C. CD4+ T-lymphocytes (0.5 x 10^6 cells) (triplicates) were exposed to HIV-1 JR-CSF. Drugs were initially added 3 days post-viral exposure (2 μM) and then daily (0.5 μM). Viral replications were monitored by HIV-1 p24 and HCV core ELISAs. […] D. Model for the HIV-1/HCV co-culture system.

HCV JFH-1 [4] = assay: HIV-1/HCV co-culture co-infection, HCV core ELISA; type: cell-based
Description: as §1, §2, §3

[5] = drug treatments begun 3 h before virus addition
[6] = single dose added 3 days post-infection

Compound: C/C=C/C[C@@H](C)[C@@H](O)[C@H]1C(=O)N[C@@H](CC)C(=O)N(C)CC(=O)N(C)[C@@H]([C@@H](C)CC)C(=O)N[C@@H](C(C)C)C(=O)N(C)[C@@H](CC(C)C)C(=O)N[C@@H](C)C(=O)N[C@H](C)C(=O)N(C)[C@@H](CC(C)C)C(=O)N(C)[C@@H](CC(C)C)C(=O)N(C)[C@@H](C(C)C)C(=O)N1C [NIM811]
- Cellular toxicity (in words) (human T cells; general statement on other CypI, no reference given): lack of cellular toxicity

Compound: C/C=C/C[C@@H](C)[C@@H](O)[C@H]1C(=O)N[C@@H](CC)C(=O)N(C)[C@H](SCCN(C)C)C(=O)N(C)[C@@H](CC(C)(C)O)C(=O)N[C@@H](C(C)C)C(=O)N(C)[C@@H](CC(C)C)C(=O)N[C@@H](C)C(=O)N[C@H](C)C(=O)N(C)[C@@H](CC(C)C)C(=O)N(C)[C@@H](CC(C)C)C(=O)N(C)[C@@H](C(C)C)C(=O)N1C [SCY-635]
- Cellular toxicity (in words) (human T cells): lack of cellular toxicity

Compound: Cc1c(O)cccc1C(=O)N[C@@H](CSc1ccccc1)[C@H](O)CN1C[C@H]2CCCC[C@H]2C[C@H]1C(=O)NC(C)(C)C [Nelfinavir, nelfinavir]
- Effect on HIV-1 replication (in words) (HIV-1 JR-CSF [1]): totally blocked replication
- Effect on HCV replication (in words) (HCV JFH-1 [2]): had no effect
- Effect on HIV-1 replication (in words) (HIV-1 JR-CSF [3]; [5]): totally prevented HIV-1 replication
- Effect on HIV-1 replication (in words) (HIV-1 JR-CSF [3]; [6]): completely eradicated
- Effect on HCV replication (in words) (HCV JFH-1 [4]; [5]): did not

Compound: COC(=O)N[C@H](C(=O)N1CCC[C@H]1c1nc(-c2ccc(-c3ccc(-c4c[nH]c([C@@H]5CCCN5C(=O)[C@@H](NC(=O)OC)C(C)C)n4)cc3)cc2)c[nH]1)C(C)C [Daclatasvir, daclatasvir]
- Effect on HIV-1 replication (in words) (HIV-1 JR-CSF [1]): had no effect
- Effect on HCV replication (in words) (HCV JFH-1 [2]): fully blocked HCV replication
- Effect on HIV-1 replication (in words) (HIV-1 JR-CSF [3]; [5]): did not
- Effect on HCV replication (in words) (HCV JFH-1 [4]; [5]): completely prevented
- Effect on HCV replication (in words) (HCV JFH-1 [4]; [6]): completely eradicated
